Results as given in patent US20250361233A1, “Compounds For Activating Serotonin Receptor” (PSYLO PTY LTD, priority 2023, published 2025).

Assays:
Assay type in all cases: cell-based
5-HT2A receptor = target: T1, 5-HT2A receptor (Homo sapiens, UniProt P28223); assay: FLIPR Ca2+ flux functional assay, agonist activity at 5-HT2A; conditions: stably transfected HEK293 cells
T1 construct: host or cells: HEK293
Experimental: (§1) Functional assays 5-HT2A, 5-HT2B and 5-HT2C Receptors
(§2) Activity at 5-HT2A, 5-HT2B and 5-HT2C receptors was determined using a FLIPR Ca2+ flux assay at WuXi AppTec Co. Ltd. (Hong Kong) Discovery Biology Unit according to their standard protocols. Briefly, stably transfected cells expressing the receptor of interest (HEK293 for 5-HT2A and 5-HT2C; CHO-K1 for 5-HT2B) were grown and plated in a 384 well plate and incubated at 37° C. and 5% CO2 overnight. A 250 mM stock solution of probenecid in FLIPR calcium assay buffer (10 mL) was freshly prepared and combined with a fluorescent dye (Fluo-4 Direct) to give a final assay concentration of 2.5 mM. Reference compounds were 4-fold serially diluted and the screening compounds were 3-fold serially diluted in 100% DMSO for 10 points using Agilent Bravo, and 750 nL was added to a 384 well compound plate using Echo along with 30 μL assay buffer. The fluorescent dye was then added to the assay plate along with assay buffer to a final volume of 40 μL. The cell plate was incubated for 50 min at 37° C. and 5% CO2 and placed into the FLIPR Tetra along with the compound plate. 10 μL of references and compounds were then transferred from the compound plate into the cell plate and the fluorescent signal was read.

5-HT2C receptor = target: T2, 5-HT2C receptor (Homo sapiens, UniProt P28335); assay: FLIPR Ca2+ flux functional assay, agonist activity at 5-HT2C; conditions: stably transfected HEK293 cells
T2 construct: host or cells: HEK293
T2 sequence (P28335 33-458): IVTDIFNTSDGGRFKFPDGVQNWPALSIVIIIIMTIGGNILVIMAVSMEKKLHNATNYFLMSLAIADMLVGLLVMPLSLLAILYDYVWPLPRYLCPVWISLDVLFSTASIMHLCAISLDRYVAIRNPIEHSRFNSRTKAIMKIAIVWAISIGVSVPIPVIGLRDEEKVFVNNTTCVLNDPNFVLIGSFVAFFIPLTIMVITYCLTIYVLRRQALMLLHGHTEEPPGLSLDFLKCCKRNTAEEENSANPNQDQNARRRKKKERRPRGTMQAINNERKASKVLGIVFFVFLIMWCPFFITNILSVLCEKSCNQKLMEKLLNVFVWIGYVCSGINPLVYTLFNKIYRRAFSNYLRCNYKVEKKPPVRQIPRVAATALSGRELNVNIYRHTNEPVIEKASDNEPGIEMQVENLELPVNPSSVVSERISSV
Experimental: as §1, §2

5-HT2B receptor = target: T3, 5-HT2B receptor (Homo sapiens, UniProt P41595); assay: 5-HT2B activation in a similar assay at a single 10 μM concentration
T3 construct: host or cells: CHO-K1
T3 sequence (P41595 whole entry): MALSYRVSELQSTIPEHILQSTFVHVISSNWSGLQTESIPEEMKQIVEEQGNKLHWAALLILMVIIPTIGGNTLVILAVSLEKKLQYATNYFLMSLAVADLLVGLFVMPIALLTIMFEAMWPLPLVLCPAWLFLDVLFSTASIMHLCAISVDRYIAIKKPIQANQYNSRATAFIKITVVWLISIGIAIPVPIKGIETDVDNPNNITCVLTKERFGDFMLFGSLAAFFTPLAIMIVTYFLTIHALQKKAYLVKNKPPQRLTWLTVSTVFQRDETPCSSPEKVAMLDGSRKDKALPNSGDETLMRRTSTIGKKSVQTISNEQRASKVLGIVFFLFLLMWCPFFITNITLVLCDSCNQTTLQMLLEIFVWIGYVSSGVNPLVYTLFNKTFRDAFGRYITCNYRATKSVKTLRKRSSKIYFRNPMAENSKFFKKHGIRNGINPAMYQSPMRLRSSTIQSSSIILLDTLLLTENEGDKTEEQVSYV
Experimental: Activation data are provided in a similar assay tested at a single 10 μM concentration.

T1 sequence (P28223 whole entry): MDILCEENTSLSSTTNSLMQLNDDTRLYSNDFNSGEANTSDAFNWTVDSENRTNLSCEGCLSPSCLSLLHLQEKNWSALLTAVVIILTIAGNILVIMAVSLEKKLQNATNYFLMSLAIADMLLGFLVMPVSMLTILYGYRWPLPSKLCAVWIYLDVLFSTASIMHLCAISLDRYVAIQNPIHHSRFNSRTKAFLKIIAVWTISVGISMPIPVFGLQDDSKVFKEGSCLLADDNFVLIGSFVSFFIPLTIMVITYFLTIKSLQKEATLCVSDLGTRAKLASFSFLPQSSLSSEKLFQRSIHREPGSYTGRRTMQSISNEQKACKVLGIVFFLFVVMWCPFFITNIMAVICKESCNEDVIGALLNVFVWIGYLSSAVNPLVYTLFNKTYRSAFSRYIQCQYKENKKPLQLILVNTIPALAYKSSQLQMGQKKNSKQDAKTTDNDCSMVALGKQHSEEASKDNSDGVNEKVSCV

Row | Compound | EC50 (5-HT2A receptor) [nM] | Emax (5-HT2A receptor) [%] | EC50 (5-HT2C receptor) [nM] | Emax (5-HT2C receptor) [%] | 5-HT2B % Activation @ 10 μM (5-HT2B receptor) [%]
1 | CN(CCc1c[nH]c2ncc(F)cc12)C1CC1 [Compound S1, N-(2-(5-fluoro-1H-pyrrolo[2,3-b]pyridin-3-yl)ethyl)-N-methylcyclopropanamine] | 33.7 | 82 | 1440 | 77 | 2
2 | Fc1cnc2[nH]cc(CCN(C3CC3)C3CC3)c2c1 [Compound S5, N-cyclopropyl-N-(2-(5-fluoro-1H-pyrrolo[2,3-b]pyridin-3-yl)ethyl)cyclopropanamine] | 1070 | 82 | > 10000 | 28 | 
3 | Fc1cnc2[nH]cc(CCN3CCC34CCC4)c2c1 [Compound S8, 3-(2-(1-azaspiro[3.3]heptan-1-yl)ethyl)-5-fluoro-1H-pyrrolo[2,3-b]pyridine] | 354 | 56 | > 10000 | 0 | 
4 | Fc1cnc2[nH]cc(CCN3CCC3)c2c1 [Compound S9, 3-(2-(azetidin-1-yl)ethyl)-5-fluoro-1H-pyrrolo[2,3-b]pyridine] | 21 | 83 | 1480 | 72 | 
5 | Fc1cnc2[nH]cc(CCNC3CCC3)c2c1 [Compound S11, N-(2-(5-fluoro-1H-pyrrolo[2,3-b]pyridin-3-yl)ethyl)cyclobutanamine] | 136 | 80 | > 10000 | 25 | 
6 | CN(CCc1c[nH]c2ncc(F)cc12)C1CCC1 [Compound S12, N-(2-(5-fluoro-1H-pyrrolo[2,3-b]pyridin-3-yl)ethyl)-N-methylcyclobutanamine] | 79 | 84 | 3370 | 50 | 
7 | Fc1cnc2[nH]cc(CCN3CCOCC3)c2c1 [Compound S15, 4-(2-(5-fluoro-1H-pyrrolo[2,3-b]pyridin-3-yl)ethyl)morpholine] | 1940 | 72 | > 10000 | 0 | 
8 | CC1CCN1CCc1c[nH]c2ncc(F)cc12 (stereo not drawn) [Compound S16, 3-(2-(2-methylazetidin-1-yl)ethyl)-5-fluoro-1H-pyrrolo[2,3-b]pyridine] | 32.5 | 81 | 1100 | 60 | 
9 | Fc1cnc2[nH]cc(CCNCc3ccccc3F)c2c1 [Compound S30, 2-(5-fluoro-1H-pyrrolo[2,3-b]pyridin-3-yl)-N-(2-fluorobenzyl)ethan-1-amine] | 26.9 | 82 | 512 | 83 | 
10 | Fc1cccc(CNCCc2c[nH]c3ncc(F)cc23)c1 [Compound S31, 2-(5-fluoro-1H-pyrrolo[2,3-b]pyridin-3-yl)-N-(3-fluorobenzyl)ethan-1-amine] | 15.5 | 87 | 515 | 76 | 
11 | COc1ccccc1CNCCc1c[nH]c2ncc(F)cc12 [Compound S32, 2-(5-fluoro-1H-pyrrolo[2,3-b]pyridin-3-yl)-N-(2-methoxybenzyl)ethan-1-amine] | 3.31 | 94 | 206 | 89 | 
12 | COc1cccc(CNCCc2c[nH]c3ncc(F)cc23)c1 [Compound S33, 2-(5-fluoro-1H-pyrrolo[2,3-b]pyridin-3-yl)-N-(3-methoxybenzyl)ethan-1-amine] | 8.27 | 82 | 244 | 87 | 
13 | Fc1cnc2[nH]cc(CCNCc3ccccc3)c2c1 [Compound S34, N-benzyl-2-(5-fluoro-1H-pyrrolo[2,3-b]pyridin-3-yl)ethan-1-amine] | 18 | 90 | 319 | 84 | 
14 | CN(CCc1c[nH]c2ncc(F)cc12)CC1CC1 [Compound S43, N-(cyclopropylmethyl)-2-(5-fluoro-1H-pyrrolo[2,3-b]pyridin-3-yl)-N-methylethan-1-amine] | 155 | 71 | 2740 | 55 | 
